These results are taken from patent publication US9427001B2, “Enhanced bioavailable iodine molecules” (ZINPRO CORPORATION, priority 2011, dated 2016).

Read-outs that look alike come from different tables or passages of the source.

For data set [1] the following is noted: nonlactating pregnant beef cows, bolus.
For data set [2] the following is noted: nonlactating pregnant beef cows; 60 mg Iodine/day for 10 days.

As for Zinc Lysine Diiodide [Structure I], the “Average Serum iodine level (day 2-day 14)” value in data set [1] (60 mg Iodine/day for 10 days (day 0-day 10), average of day 2-14) worked out at 184. Also, the “Serum iodine Day 10 (last treatment day)” value in data set [1] (60 mg Iodine/day for 10 days, peak value at day 10) came to 380. The “Blood levels of iodine compared with CaIO3 or EDDI” value in data set [1] (60 mg iodine day 0-day 10) was “higher blood levels of iodine than CaIO3 or EDDI”.

In the case of “Zinc Hydroxy-Methylthio-Butyric Acid Iodide [Example III]”, in data set [2], the “Average Serum iodine level (day 2-day 14)” value was 386 and the “Serum iodine Day 10 (last treatment day)” value is given as 630.
